Laboratory results as given in US7462629B2, “Immunosuppressant compounds and compositions” (IRM LLC, priority 2003, dated 2008).
pEC50: −log10 of the molar value.

Experiments:
human EDG-1 = biological target: T1, human EDG-1 (Homo sapiens, UniProt P21453); experiment: EDG-1 (S1P1) GTP [γ-35S] binding assay, membranes from CHO cells; format: biochemical; details: CHO membranes expressing human EDG-1
T1 construct: expressed in transfected cells
Description: (§1) A. In Vitro: GPCR Activation Assay Measuring GTP [γ-^35S] Binding to Membranes Prepared from CHO Cells Expressing Human EDG Receptors
EDG-1 (S1P1) GTP [γ-^35S] binding assay: Homogenized membranes are prepared from CHO cell clones stably expressing a human EDG-1 N-terminal c-myc tag. Cells are grown in suspension in two 850 cm^2 roller bottles for three or fours days before harvesting. The cells are centrifuged down, washed once with cold PBS, and resuspended in ≦20 ml of Buffer A (20 mM HEPES, pH 7.4, 10 mM EDTA, EDTA-free complete protease inhibitor cocktail [1 tablet/25 ml]). The cell suspension is homogenized on ice, using a Polytron homogenizer at 30000 rpm at three intervals of 15 seconds each. The homogenate is first centrifuged at 2000 rpm on a tabletop low speed centrifuge for 10 minutes. The supernatant, after passing through a cell strainer, is then re-centrifuged at 50,000×g for 25 minutes at 4° C. The pellet is resuspended into buffer B (15% glycerol, 20 mM HEPES, pH 7.4, 0.1 mM EDTA, EDTA-free complete protease inhibitor cocktail [1 tablet/10 ml]). Protein concentration of the prep is determined using the BCA Protein Assay kit (Pierce) using BSA as standard. The membranes are aliquoted and kept frozen at −80° C.
Solutions of test compounds ranging from 10 mM to 0.01 nM are prepared in DMSO. S1P is diluted in 4% BSA solution as positive controls. […]

[1] = system: EDG-3, EDG-5, EDG-6 and EDG-8; experiment: EDG-3, -5, -6 and -8 GTP [γ-35S] binding assays (selectivity versus EDG-1); format: biochemical, human
Description: as §1
For each membrane preparation, titration experiments are first run with S1P control to determine the optimal amount of membranes to be added per assay well. […] For example, 3-[6-(4-cyclohexyl-3-trifluoromethyl-benzyloxy)-3,4-dihydro-1H-isoquinolin-2-yl]-propionic acid (compound 9) has an EC50 of 0.2 nM in the above assay and is at least 1000 fold selective for EDG-1 compared to one or more of the other receptors including EDG-3, EDG-5, EDG-6 and EDG-8.

blood lymphocytes = experiment: Measurement of circulating lymphocytes (blood lymphocyte depletion); format: in vivo, Mice (C57bl/6 male); details: Mus musculus, mice, oral gavage, blood collected 6 and 24 hours after administration, read-out: ED50 (effective dose for 50% of blood lymphocyte depletion)
Description: C. In Vivo: Screening Assays for Measurement of Blood Lymphocyte Depletion and Assessment of Heart Effect
Measurement of circulating lymphocytes: Compounds are dissolved in DMSO and diluted to obtain a final concentration of 4% DMSO (v/v, final concentration) and then further diluted in a constant volume of Tween80 25%/H2O, v/v. Tween80 25%/H2O (200 μl), 4% DMSO, and FTY720 (10 μg) are included as negative and positive controls, respectively. Mice (C57bl/6 male, 6-10 week-old) are administered 250-300 μL of compound solution orally by gavages under short isoflurane anesthesia.
Blood is collected from the retro-orbital sinus 6 and 24 hours after drug administration under short isoflurane anesthesia. Whole blood samples are subjected to hematology analysis. Peripheral lymphocyte counts are determined using an automated analyzer. Subpopulations of peripheral blood lymphocytes are stained by fluorochrome-conjugated specific antibodies and analyzed using a fluorescent activating cell sorter (Facscalibur). Two mice are used to assess the lymphocyte depletion activity of each compound screened. The result is an ED50, which is defined as the effective dose required displaying 50% of blood lymphocyte depletion.

T1 sequence (P21453 whole entry): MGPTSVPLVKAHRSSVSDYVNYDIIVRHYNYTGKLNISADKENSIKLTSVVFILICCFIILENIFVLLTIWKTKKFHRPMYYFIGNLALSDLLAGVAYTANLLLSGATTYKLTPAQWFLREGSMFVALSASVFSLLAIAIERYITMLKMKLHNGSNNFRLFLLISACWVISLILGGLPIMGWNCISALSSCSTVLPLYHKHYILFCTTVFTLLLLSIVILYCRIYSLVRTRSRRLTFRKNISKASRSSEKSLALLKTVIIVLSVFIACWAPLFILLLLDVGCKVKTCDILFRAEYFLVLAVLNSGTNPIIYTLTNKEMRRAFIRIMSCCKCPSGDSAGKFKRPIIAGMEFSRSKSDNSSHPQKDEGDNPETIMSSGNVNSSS

pEC50 (human EDG-1): 9.70 | selectivity for EDG-1 compared to one or more of EDG-3, EDG-5, EDG-6 and EDG-8 [1]: at least 1000 fold
Structure (SMILES): O=C(O)CCN1CCc2cc(OCc3ccc(C4CCCCC4)c(C(F)(F)F)c3)ccc2C1 [Compound 9, 3-[6-(4-cyclohexyl-3-trifluoromethyl-benzyloxy)-3,4-dihydro-1H-isoquinolin-2-yl]-propionic acid]
ED50 (blood lymphocytes): 0.2 mg/kg
